In patent US20240368174A1, “Antiviral Heterocyclic Compounds” (Enanta Pharmaceuticals, Inc., priority 2023, published 2024):

System: HMPV clinical isolate A2 strain TN 94-49
Assay: HMPV antiviral assay, Method 1 (LLC-MK2 cells, ATP-Lite)
Assay type: cell-based
Conditions: human metapneumovirus, hMPV A2 TN/94-49, LLC-MK2 cells
Procedure: In vitro HMPV antiviral activity was evaluated using the clinical isolate A2 strain TN 94-49 (obtained from Dr. John Williams, Vanderbilt University, Tennessee) and LLC-MK2 cells (ATCC #CCL-7), an immortalized kidney epithelial cell line from Macaca mulatta. Compounds were resuspended in dimethyl sulfoxide (DMSO) at 10 mM, serially diluted and added to a 384-well source plate. Subsequently, the compounds were diluted and transferred onto 384-well assay plates using the Echo-650 automated liquid handling system (Beckman Coulter, Indiana). The test compounds were assessed in duplicate at a top concentration of 2 μM followed by 2.5-fold serial dilutions to give a total of 10 concentration points. DMSO control wells were also included on the assay plates and were either infected or not, acting as positive and negative controls. A2 TN 94-49 virus infections were performed in-suspension with LLC-MK2 cells. The cells were washed twice with PBS and removed from the cell-culture flask with 0.25% trypsin-EDTA (Thermo Fisher Scientific, MA). The trypsin-EDTA was inactivated by resuspending in 2% fetal bovine serum (FBS) and OptiMEM (ThermoFisher Scientific, MA) containing 1% penicillin-streptomycin. Cells were pelleted by centrifuging for 5 minutes at 800 rpm, the supernatant was removed, and cells were re-suspended and washed in PBS plus 100 μg/mL CaCl2). This step was performed twice. Cells were then re-suspended in serum-free (SF)-OptiMEM containing 4 μg/mL TPCK-Trypsin (Sigma Aldrich, MO), 1% penicillin-streptomycin (ThermoFisher Scientific, MA) and 100 μg/mL CaCl2). Cells were counted and seeded at a density of 5,000 cells/well, 12.5 μL/well. Virus infections were done at a multiplicity of infection (MOI) of 0.005 with 12.5 μL added per well. Virus infections were performed in infection media which contained SF-OptiMEM, 100 μg/mL CaCl2) and 1% penicillin-streptomycin. HMPV viral stocks are suspended in infection media+5% glycerol, thus an equal volume of infection media+5% glycerol was added to uninfected wells to equalize the final % glycerol across all wells of the assay plate. The final concentration of TPCK-trypsin was 2 μg/mL. The assay plates were incubated at 37° C., 5% CO2 for 7 days. After 7 days incubation, 12.5 μL of ATP-Lite (PerkinElmer, MA) was added to each well and the raw luminescence values were determined using the Envision 2104 (Perkin Elmer, MA). The average of the raw luminescence values for the cells and virus only positive control wells was subtracted from all conditions tested and the percent cell health was determined by dividing these values by the average of the cells only negative control wells. EC50 values were then calculated by non-linear regression using a four-parameter curve logistic equation. The curve fit model employed was XLFit Dose Response One Site Model 200: y=(A+(B/(1+((x/C)^D)))), where A is the minimum y value, B is the maximum y value, C is the log EC50 value, and D is the slope factor.

| Structure (SMILES) | EC50 |
| --- | --- |
| COc1cc(C(=O)NC[C@](O)(c2cc3c(c(-c4cc(Cl)c(F)cc4F)n2)OC[C@]3(C)C(N)=O)C2CC2)cc2cc(C(F)(F)F)cnc12 [Example 1] | > 500 nM |
| COc1cc(C(=O)NC[C@](O)(c2cc3c(c(-c4cccc(SC(F)(F)F)c4)n2)OC[C@]3(C)C(N)=O)C2CC2)cc2cn(C3CC3)nc12 [Example 36] | > 500 nM |
| COc1cc(C(=O)NC[C@](O)(c2cc3c(c(-c4cc(Cl)c(C)cc4F)n2)OC[C@]3(C)C(N)=O)C2CC2)cc2cn(C3CC3)nc12 [Example 51] | > 500 nM |
| COc1cc(C(=O)NC[C@](O)(c2cc3c(c(-c4cc(Cl)c(F)cc4F)n2)OC[C@]3(C)C(N)=O)c2cnn[nH]2)cc2cn(C3CC3)nc12 [Example 180] | > 500 nM |
| COc1cc(C(=O)NC[C@](O)(c2cc3c(c(-c4cc(F)c(F)cc4F)n2)OC[C@]3(C)C(N)=O)C2CC2)cc2cc(C(F)(F)F)cnc12 [Example 46] | > 500 nM |
| COc1cc(C(=O)NC[C@](O)(c2cc3c(c(-c4ccc(F)cc4O)n2)OC[C@]3(C)C(N)=O)C2CC2)cc2cn(C3CC3)nc12 [Example 63] | > 500 nM |
| COc1cc(C(=O)NC[C@](O)(c2cc3c(c(-c4cc(Cl)cc(C)c4F)n2)OC[C@]3(C)C(N)=O)C2CC2)cc2cn(C3CC3)nc12 [Example 47] | > 500 nM |
| [2H]C([2H])([2H])c1nc2c(OC)cc(C(=O)NC[C@](O)(c3cc4c(c(-c5cc(F)c(F)cc5F)n3)OC[C@]4(C)C(N)=O)C3CC3)cc2cc1Br [Example 7] | < 500 nM |
| COc1cc(C(=O)NC[C@@](O)(c2cc3c(c(-c4ccc(F)cc4O)n2)OC[C@]3(C)C(N)=O)C2CC2)cc2cn(C3CC3)nc12 [Example 64] | > 500 nM |
| C[C@]1(C(N)=O)COc2c1cc([C@@](O)(CNC(=O)c1cc(Cl)c3nn(C4CC4)cc3c1)C1CC1)nc2-c1ccc2c(c1Cl)OC(F)(F)O2 [Example 35] | < 500 nM |
| COc1cc(C(=O)NC[C@@](O)(c2ccc(F)cc2)c2cc3c(c(-c4cc(Cl)c(F)cc4F)n2)OC[C@]3(C)C(N)=O)cc2cn(C(F)F)nc12 [Example 13] | < 500 nM |
| COc1cc(C(=O)NC[C@@](O)(c2ccsc2)c2cc3c(c(-c4cc(Cl)c(F)cc4F)n2)OC[C@]3(C)C(N)=O)cc2cn(C(F)F)nc12 [Example 174] | < 500 nM |
| COc1cc(C(=O)NC[C@](O)(c2cc3c(c(-c4cc(C(F)(F)F)ccc4C)n2)OC[C@]3(C)C(N)=O)C2CC2)cc2cn(C3CC3)nc12 [Example 53] | < 500 nM |
| COc1cc(C(=O)NC[C@](O)(c2cc3c(c(-c4cc(Cl)c(F)cc4F)n2)OC[C@]3(C)C(N)=O)c2ccccc2F)cc2cc(C3CC3)nn12 [Example 137] | < 500 nM |
| COc1cc(C(=O)NC[C@@](O)(c2ccccc2)c2cc3c(c(-c4cc(Cl)c(F)cc4F)n2)OC[C@]3(C)C(N)=O)cc2cc(C)cnc12 [Example 80] | < 500 nM |
| COc1cc(C(=O)NC[C@](O)(c2cc3c(c(-c4cc(Cl)c(F)cc4F)n2)OC[C@]3(C)C(N)=O)c2ccccc2F)cc2cn(C3CC3)nc12 [Example 136] | < 500 nM |
| C[C@]1(C(N)=O)COc2c1cc([C@@](O)(CNC(=O)c1ccc3nc(N)sc3c1)c1ccccc1)nc2-c1ccc2c(c1Cl)OC(F)(F)O2 [Example 256] | < 500 nM |

Results, then the compound that gave them:

| EC50 | Structure (SMILES) |
| --- | --- |
| < 500 nM | [2H]C([2H])([2H])c1nc2c(OC)cc(C(=O)NC[C@@](O)(c3cccc(F)c3)c3cc4c(c(-c5ccc(F)c(Cl)c5Cl)n3)OC[C@]4(C)C(N)=O)cc2s1 [Example 272] |
| < 500 nM | COc1cc(C(=O)NC[C@@](O)(c2ccccc2)c2cc3c(c(-c4cccc(Cl)c4Cl)n2)OC[C@]3(C)C(N)=O)cc2cn(C(F)F)nc12 [Example 261] |
| < 500 nM | COc1cc(C(=O)NC[C@](O)(c2cc3c(c(-c4cc(Cl)cc(Cl)c4Cl)n2)OC[C@]3(C)C(N)=O)C2CC2)cc2cn(C3CC3)nc12 [Example 61] |
| < 500 nM | CCNC(=O)[C@@]1(C)COc2c1cc([C@@](O)(CNC(=O)c1cc(OC)c3nn(C4CC4)cc3c1)c1ccccc1)nc2-c1cc(Cl)c(F)cc1F [Example 142] |
| < 500 nM | Cc1nc2ccc(C(=O)NC[C@@](O)(c3ccccc3)c3cc4c(c(-c5cc(Cl)c(F)cc5F)n3)OC[C@]4(C)C(N)=O)cc2o1 [Example 86] |
| < 500 nM | [2H]C([2H])([2H])c1nc2c(OC)cc(C(=O)NC[C@@](O)(c3ccccc3)c3cc4c(c(-c5ccc6c(c5)OC(F)(F)O6)n3)OC[C@]4(C)C(N)=O)cc2s1 [Example 9] |
| < 500 nM | COc1cc(C(=O)NC[C@@](O)(c2ccccc2)c2cc3c(c(-c4ccc5c(c4Cl)OC(F)(F)O5)n2)OC[C@]3(C)C(N)=O)cc2cn(C(F)F)nc12 [Example 253] |
| < 500 nM | [2H]C([2H])([2H])c1nc2c(OC)cc(C(=O)NC[C@@](O)(c3cccc(OC)c3)c3cc4c(c(-c5cc(Cl)c(F)cc5F)n3)OC[C@]4(C)C(N)=O)cc2s1 [Example 163] |
| < 500 nM | COc1cc(C(=O)NC[C@](O)(c2cc3c(c(-c4cc(Cl)c(F)cc4F)n2)OC[C@]3(C)C(N)=O)c2cc(C)cs2)cc2cn(C3CC3)nc12 [Example 467] |
| < 500 nM | COc1cc(C(=O)NC[C@@](O)(c2ccc(F)cc2)c2cc3c(c(-c4ccc(F)c(Cl)c4Cl)n2)OC[C@]3(C)C(N)=O)cc2cc(C3CC3)nn12 [Example 45] |
| < 500 nM | COc1cc(C(=O)NC[C@@](O)(c2ccsc2)c2cc3c(c(-c4cc(F)c(F)cc4F)n2)OC[C@]3(C)C(N)=O)cc2cn(C3CC3)nc12 [Example 177] |
| < 500 nM | COc1cc(C(=O)NC[C@@](O)(c2ccc(F)cc2)c2cc3c(c(-c4ccc(F)c(Cl)c4Cl)n2)OC[C@]3(C)C(N)=O)cc2cn(C(F)F)nc12 [Example 42] |
| < 500 nM | COc1cc(C(=O)NC[C@@](O)(c2ccccc2)c2cc3c(c(-c4cc(Cl)c(F)cc4F)n2)OC[C@]3(C)C(N)=O)cc2ccc(C)nc12 [Example 79] |
| < 500 nM | COc1cc(C(=O)NC[C@](O)(c2cc3c(c(-c4ccc(Cl)c(Cl)c4Cl)n2)OC[C@]3(C)C(N)=O)C2CC2)cc2cn(C3CC3)nc12 [Example 60] |
| < 500 nM | COc1cc(C(=O)NC[C@](O)(c2cc3c(c(-c4cc(F)c(F)c(F)c4Cl)n2)OC[C@]3(C)C(N)=O)C(F)(F)F)cc2cn(C3CC3)nc12 [Example 59] |
| < 500 nM | [2H]C([2H])([2H])c1nc2c(OC)cc(C(=O)NC[C@@](O)(c3ccc(F)cc3)c3cc4c(c(-c5ccc6c(c5Cl)OC(F)(F)O6)n3)OC[C@]4(C)C(N)=O)cc2s1 [Example 27] |
| < 500 nM | Cc1nc2ccc(C(=O)NC[C@@](O)(c3ccccc3)c3cc4c(c(-c5ccc(F)c(Cl)c5Cl)n3)OC[C@]4(C)C(N)=O)cc2o1 [Example 267] |
| < 500 nM | [2H]C([2H])([2H])c1nc2c(OC)cc(C(=O)NC[C@](O)(c3cc4c(c(-c5cc(Cl)c(F)cc5F)n3)OC[C@]4(C)C(N)=O)C3CC3)cc2s1 [Example 10] |
| < 500 nM | [2H]C([2H])([2H])c1nc2c(OC)cc(C(=O)NC[C@@](O)(c3ccc(F)cc3)c3cc4c(c(-c5cc(Cl)c(F)cc5F)n3)OC[C@]4(C)C(N)=O)cc2s1 [Example 16] |
| < 500 nM | COc1cc(C(=O)NC[C@@](O)(c2ccccc2)c2cc3c(c(-c4ccc5c(c4Cl)OC(F)(F)O5)n2)OC[C@]3(C)C(N)=O)cc2cn(C3CC3)nc12 [Example 251] |
| < 500 nM | COc1cc(C(=O)NC[C@@](O)(c2ccsc2)c2cc3c(c(-c4cc(F)c(F)cc4F)n2)OC[C@]3(C)C(N)=O)cc2cn(C(F)F)nc12 [Example 178] |
